# Numbers after ± are expanded uncertainties.
# Conditions: Crystal; DTA
row,Normal melting temperature [°C],SMILES
1,64 ± 2,CCCCCCCCCCCCCCCCCCCCO [1-eicosanol]
2,38 ± 2,CCCCCCCCCCCCCCO [1-tetradecanol]
